Laboratory results reported in patent US20260002124A1, “ENHANCING NEURONAL DIFFERENTIATION OF VENTRAL MIDBRAIN NEURAL PROGENITOR CELLS” (Novo Nordisk A/S, priority 2022, published 2026).
Where “and” joins values, the source holds several entries; their conditions need not be identical. Identical values can stand only once.

Legend:
Format in all cases: cell-based, human
[1] = system: ventral midbrain floor plate NSCs; assay: Early in vitro administration of MEKi and/or NOTCHi (DIV16-22), flow cytometry marker expression
Method: (§1) hESCs were differentiated to ventral midbrain neurons according to an established protocol (Nolbrant et al., 2017; Kirkeby et al., 2017). In brief, hESC were grown to 70-90% confluency, then disassociated with 0.5 mM EDTA. The cells were seeded at 10^4 cells/cm^2 in cell culture flasks or plates coated with human laminin-111 (1.2 μg/cm^2; BioLamina) and immediately put into contact with differentiation media. The cells were exposed to N2-based media from days in vitro (DIV) 0-8; 50% DMEM/F12+Glutamax (Gibco), 50% Neurobasal (Gibco), 1% N2 supplement CTS (Thermo Fisher Scientific), 5% GlutaMAX (Thermo Fisher Scientific), 0.2% P-S (Thermo Fisher Scientific) and supplemented with SMAD inhibitors SB431542 (10 μM; Miltenyi Biotec), Noggin (100 ng/mL; Miltenyi Biotec) for neural induction, Sonic Hedgehog C24II (SHH; 500 ng/mL; Miltenyi Biotec) for ventral fate, GSK3B inhibitor CHIR99021 (CHIR; 0.5-0.6 μM; Miltenyi Biotec) to promote caudalization. N2-based media was supplemented with fibroblast growth factor 8b (FGF8b; 100 ng/mL; Miltenyi Biotec) from DIV9-11. At DIV11, the cells were dissociated with accutase (Thermo Fisher Scientific) and seeded at 0.8×10^6 cells/[…] in a cell culture flask or plate coated with human laminin-111 (1.2 μg/cm^2) in DIV11-16 media (Neurobasal, 2% B27 supplement without vitamin A CTS (Thermo Fisher Scientific), 5% GlutaMAX, 0.2% P-S and supplemented with FGF8b (100 ng/mL), L-ascorbic acid (AA; 200 μM; Sigma), human Brain Derived Neurotrophic Factor (BDNF; 20 ng/mL; Miltenyi Biotec)) supplemented with Y-27632 (Miltenyi Biotec) at 10 μM. At day in vitro (DIV) 16, the cells were dissociated with accutase and either cryopreserved, or re-seeded in cell culture flasks/plates coated with poly-L-ornithine (0.002%) and Laminin-521 (1.5 μg/cm^2) in B27 media supplemented with BDNF (20 ng/mL), GDNF (20 ng/mL), L-ascorbic acid (200 μM), dcAMP (500 μM), DAPT (10 μM), and Y-27632 (10 μM) for extended in vitro culture allowing further differentiation and maturation of ventral midbrain neural stem cells into neurons.
(§2) Ventral midbrain dopaminergic (vmDA) progenitor cells were generated from hESCs in 2D in vitro culture as described in Example 1 and using reagents described in Table 1. At various days after initiating the differentiation the cell culture was dissociated into a single cell suspension using Accutase, counted on a NucleoCounter NC-200 and collected in N2 media (CTS™ Neurobasal™ medium supplemented with 1% CTS™ N-2 supplement). Dead cells were labelled using a LIVE/DEAD™ Fixable Near-IR Dead Cell Stain Kit. The cells were then resuspended in B27 media (CTS™ Neurobasal™ medium supplemented with 1% B-27™ supplement without vitamin A, 2 mM GSutaMAX™, 60 U/mL Penicillin-Streptomycin, 10 μM ROCK inhibitor). Cells were then fixed and permeabilized using the BD Transcription Factor Buffer Set (BD Biosciences) according to the manufacturer's instructions. The fixed cells were then stained with fluorescently conjugated antibodies, and the samples acquired on a BD LSR Fortessa or B FACSymphony (BD Biosciences). The fcs files were exported and analyzed in FlowJo 10.5.03.
(§3) To determine whether a cell was considered positive in its protein expression of a marker, gates were set as routinely done in the field at the edge of the fluorescent signal of a negative control sample. Examples of negative control samples used included unstained controls, fluorescence minus one (FMO) controls and most preferably biological negative control samples; all cells present above these threshold gates when experimental samples were run were considered positive. Antibodies: FOXA2 (1:320, Miltenyi), OTX2 (1:320, Miltenyi), SOX2 (1:40, B), LMXTA (1:2500, Novo Nordisk production), […] (1:40, AtlasAntibodies), ASCL1 (1:2500, Mitlenyi), INA (1:3000, AtlasAntibodies). […]

[2] = system: ventral midbrain floor plate NSCs; assay: Late in vitro administration of MEKi and/or NOTCHi (DIV22-29), FCM/ICC marker expression
Method: as §1, §2, §3

VM NPCs = assay: FCM profile of VM neural cells at DIV22 after earlier NOTCHi treatment DIV16-22
Method: as §1, §2, §3

[3] = system: ventral midbrain floor plate NSCs; assay: Immunofluorescence staining after early administration and extended differentiation (DIV35); settings: early administration; IF staining, extended differentiation DIV35
Method: (§4) Following compound administration and flow cytometry analysis performed in FIGS. 2 and 3, all groups were differentiated for a further 11 days in vitro and then were fixed in 4% paraformaldehyde and stained with DAPI to identify all cell nuclei and primary antibodies against SOX2 (1:300), Ki-67 (1:250), LMX1A (1:3000), INA (1:200), tyrosine hydroxylase (TH; 1:500) and COL1A1 (1:300) followed by fluorescently labelled secondary antibodies. Images were acquired on an Olympus IX81 microscope using CellSens software. The immunofluorescence (IF) staining confirmed the flow cytometry results of FIG. 3 with extended differentiation showing that treatment with a NOTCHi alone reduced, compared to untreated controls, the amount of NSCs identified by SOX2 (FIG. 4A-D) and proliferative cells identified by KI67 (FIG. 5B,D) while maintaining the amount of neuronal cells identified by INA (FIG. 5A,C).
(§5) Cells were fixed in 4% paraformaldehyde (Alfa Aesar) for 10 minutes at room temperature. Unspecific antibody binding was blocked by incubating cells with PADT buffer; phosphate-buffered saline (PBS) without Ca2+ and Mg2+ (Gibco) with 0.02% sodium azide solution (Ampliqon), 0.5% Triton X-100 (Sigma), and 5% Donkey serum (Jackson Labs) for 30 minutes, followed by overnight incubation with primary antibodies (see Table X) at 4° C. The cells were washed 3 times with PBS without Ca2+ and Mg2+, blocked with PADT buffer for 15 minutes, and incubated with fluorophore-conjugated secondary antibodies (see Table X) for 2 hours at room temperature, protected from light. The cells were then counterstained with DAPI (10 μg/mL) for 5 minutes at room temperature, washed 3 times with PBS without Ca2+ and Mg2+, and stored at 4° C. in PBS without Ca2+ and Mg2+ supplemented with 0.02% sodium azide. Images were captured with a Zeiss Axio Observer microscope equipped with an Axiocam 512 camera and ZEN 3.2 (Pro) software (Zeiss).

[4] = system: ventral midbrain floor plate NSCs; assay: Immunofluorescence staining after late administration and extended differentiation (DIV40); settings: late administration; IF staining, extended differentiation DIV40
Method: as §4, with “Figure,” for “FIGS. 2 and 3,”, “(1:1000),” for “(1:3000), INA (1:200),”, “results” for “results of FIG. 3”, “12A-D)” for “4A-D)”, “13B,D)” for “5B,D)”, “13A,C).” for “5A,C).”
as §5

[5] = early treatment DIV16-22, % of total viable cells, replicates #1-#4
[6] = early treatment, result in words
[7] = late administration DIV22-29, FCM/ICC, % of total cells, replicates #1-#4
[8] = late administration, result in words
[9] = DIV22 after NOTCHi (DAPT) DIV16-22 every 48-72 hrs, flow cytometry, replicates #1-#11
[10] = DIV22 after NOTCHi DIV16-22, Mean of #1-#11

Question: With `C[C@H](NC(=O)Cc1cc(F)cc(F)c1)C(=O)NC(C(=O)OC(C)(C)C)c1ccccc1` (stereo partly shown) [NOTCHi] as the compound, how does the FOXA2 expressing cells [1, 5] read?
Answer: Its FOXA2 expressing cells is 85.3% and 72.4% and 93.2%.

Question: And the “Ki67 expressing cells (proliferative marker)” value [1, 5]?
Answer: The value was 16.6% and 18.6% and 17.7%.

Question: And the LMX1A expressing cells [1, 5]?
Answer: Its LMX1A expressing cells is 88.4% and 77.2% and 94.5%.

Question: What about the “SOX2 expressing cells (NSC marker)” value [1, 5] of the same compound?
Answer: Its value is 59.6% and 57.3% and 65.7%.

Question: And the “expression of NSC marker SOX2 compared to controls” value [1, 6]?
Answer: The value was “downregulated”.

Question: And the “expression of proliferative marker KI67 compared to controls” value [1, 6]?
Answer: The value was “downregulated”.

Question: What about the FOXA2 expressing cells [2, 7] of the same compound?
Answer: The FOXA2 expressing cells was 81.8% and 90.2% and 68% and 92.2%.

Question: And the “INA expressing cells (neuronal marker)” value [2, 7]?
Answer: Its value is 35.4% and 61.5% and 74.1%.

Question: What about the “Ki67 expressing cells (proliferative marker)” value [2, 7] of the same compound?
Answer: The value was 21.3% and 1.65% and 3.87% and 2.98%.

Question: And the LMX1A expressing cells [2, 7]?
Answer: The LMX1A expressing cells was 95.4% and 75.4% and 91.8%.

Question: And the “SOX2 expressing cells (NSC marker)” value [2, 7]?
Answer: Its value is 62.1% and 21.9% and 63.7% and 43.6%.

Question: What about the “expression of NSC marker SOX2 compared to controls” value [2, 8] of the same compound?
Answer: Its value is “downregulated”.

Question: What about the “expression of proliferative marker KI67 compared to controls” value [2, 8] of the same compound?
Answer: Its value is “downregulated”.

Question: What about the ASCL1 expressing cells (VM NPCs; [9]) of the same compound?
Answer: Its ASCL1 expressing cells is 41.1% and 41.7% and 45.8% and 16.2% and 17.3% and 25.6% and 50.4% and 57.1% and 40.5% and 51.8% and 36.0%.

Question: What about the FOXA2 expressing cells (VM NPCs; [9]) of the same compound?
Answer: Its FOXA2 expressing cells is 69.7% and 76.2% and 82.7% and 78.0% and 75.5% and 35.2% and 85.4% and 98.2% and 82.1% and 94.9% and 67.6%.

Question: And the INA expressing cells (VM NPCs; [9])?
Answer: Its INA expressing cells is 30.5% and 19.2% and 22.4% and 13.8% and 13.3% and 32.0% and 23.6% and 34.2% and 19% and 45.6% and 18.3%.

Question: What about the “INA+/SOX2− cells” value (VM NPCs; [9]) of the same compound?
Answer: The value was 13.8% and 4.7% and 6.2% and 2.6% and 5.0% and 6.0% and 7.3% and 13.6% and 5.7% and 20.1% and 7.0%.

Question: What about the Ki67 expressing cells (VM NPCs; [9]) of the same compound?
Answer: The Ki67 expressing cells was 6.4% and 8.1% and 9.7% and 7.8% and 5.2% and 19.8% and 5.9% and 4.8% and 6.0% and 6.6% and 6.1%.

Question: What about the SOX2 expressing cells (VM NPCs; [9]) of the same compound?
Answer: The SOX2 expressing cells was 70.9% and 86.3% and 88.3% and 77.2% and 78.5% and 76.4% and 72% and 70.5% and 64.7% and 65.7% and 69.5%.

Question: And the “ASCL1 expressing cells, Mean” value (VM NPCs; [10])?
Answer: Its value is 38.5%.

Question: And the “FOXA2 expressing cells, Mean” value (VM NPCs; [10])?
Answer: Its value is 76.9%.

Question: And the “INA expressing cells, Mean” value (VM NPCs; [10])?
Answer: The value was 24.7%.

Question: What about the “INA+/SOX2− cells, Mean” value (VM NPCs; [10]) of the same compound?
Answer: Its value is 8.4%.

Question: And the “Ki67 expressing cells, Mean” value (VM NPCs; [10])?
Answer: The value was 7.9%.

Question: And the “SOX2 expressing cells, Mean” value (VM NPCs; [10])?
Answer: The value was 74.5%.

Question: What about the “amount of NSCs identified by SOX2 compared to untreated controls” value [3] of the same compound?
Answer: Its value is “reduced”.

Question: What about the “amount of neuronal cells identified by INA” value [3] of the same compound?
Answer: Its value is “maintaining”.

Question: And the “expression of ventral midbrain lineage marker LMX1A” value [3]?
Answer: The value was “did not prevent”.

Question: And the “formation of dopamine neurons (TH)” value [3]?
Answer: Its value is “did not prevent”.

Question: And the “proliferative cells identified by KI67 compared to untreated controls” value [3]?
Answer: Its value is “reduced”.

Question: What about the “proportion of stromal COL1A1 cells compared to control untreated cultures” value [3] of the same compound?
Answer: The value was “dramatically reduced”.

Question: What about the “amount of NSCs identified by SOX2 compared to untreated controls” value [4] of the same compound?
Answer: Its value is “reduced”.

Question: What about the “amount of neuronal cells identified by INA” value [4] of the same compound?
Answer: Its value is “maintaining”.

Question: And the “expression of ventral midbrain lineage marker LMX1A” value [4]?
Answer: The value was “did not prevent”.

Question: And the “formation of dopamine neurons (TH)” value [4]?
Answer: The value was “did not prevent”.

Question: And the “proliferative cells identified by KI67 compared to untreated controls” value [4]?
Answer: Its value is “reduced”.

Question: And the “proportion of stromal COL1A1 cells compared to control untreated cultures” value [4]?
Answer: Its value is “dramatically reduced”.
